Values quoted from earlier work in patent US10945989B2, “Perinatal treatment with a flavonoid agonist of the TrkB receptor for BDNF rescues neurogenesis and behavior in the Ts65Dn mouse model of DS” (ALMA MATER STUDIORUM—Universita' di Bologna, priority 2017, dated 2021).

System: Ts65Dn mouse model of DS
Details: perinatal treatment, Bianchi et al., 2010b; Guidi et al., 2014; cited from earlier work

For `CNCCC(Oc1ccc(C(F)(F)F)cc1)c1ccccc1` (stereo not shown) [fluoxetine], the “brain development and cognitive performance” value is given as “fully restores brain development and cognitive performance”.
